pIC50: −log10 of the molar value. Values after ≈ are worked out from the molar mass of the structure shown. Active and inactive are the calls of the source. The rule behind the calls is not given here.

Experimental findings from ChEMBL document CHEMBL2202952, “Marthiapeptide A, an anti-infective and cytotoxic polythiazole cyclopeptide from a 60 L scale fermentation of the deep sea-derived Marinactinospora thermotolerans SCSIO 00652” (J Nat Prod, 2012) are described below.

Experiment [1] deals with HepG2. Put plainly: Cytotoxicity against human HepG2 cells by SRB method. The class given is functional, cell-based. In general terms: In SRB staining, fixed cells bind dye roughly in proportion to their protein.
The test system of experiment [2] is Escherichia coli. In words: Antimicrobial activity against Escherichia coli DH5[alpha]. The class given is functional.
The subject of experiment [3] is NCI-H460. In words: Potency index, ratio of IC50 for cisplatin to IC50 for test compound against human NCI-H460 cells by SRB method. The class given is functional.
The test system of experiment [4] is Escherichia coli. In words: Antimicrobial activity against Escherichia coli ATCC 25922. The class given is functional.
Experiment [5] has as its system MCF7. Put plainly: Cytotoxicity against human MCF7 cells by SRB method. The class given is functional, cell-based.
The subject of experiment [6] is SF-268. In words: Potency index, ratio of IC50 for cisplatin to IC50 for test compound against human SF268 cells by SRB method. The class given is functional.
The test system of a further experiment is Staphylococcus aureus. Put plainly: Antimicrobial activity against Staphylococcus aureus ATCC 29213. The class given is functional.
In experiment [7] the test system is SF-268. In words: Cytotoxicity against human SF268 cells by SRB method. The class given is functional, cell-based.
The next experiment has as its system Bacillus subtilis. Put plainly: Antimicrobial activity against Bacillus subtilis ATCC 6633. The class given is functional.
In another experiment the test system is Bacillus thuringiensis. Put plainly: Antimicrobial activity against Bacillus thuringiensis. The class given is functional.
Experiment [8] deals with Nucleic Acid. Put plainly: Effect on F21T G-quadruplex DNA thermal stabilization assessed as change in melting temperature at 2 uM by FRET. The class given is nucleic-acid assay.
Experiment [9] deals with HepG2. In words: Potency index, ratio of IC50 for cisplatin to IC50 for test compound against human HepG2 cells by SRB method. The class given is functional.
In a further experiment the test system is Micrococcus luteus. Put plainly: Antimicrobial activity against Micrococcus luteus. The class given is functional.
Experiment [10] deals with Nucleic Acid. In words: Binding affinity to human telomeric intramolecular HTG21 G-quadruplex DNA at 20 uM by CD spectroscopy. The class given is nucleic-acid assay.
The subject of experiment [11] is NCI-H460. Put plainly: Cytotoxicity against human NCI-H460 cells by SRB method. The class given is functional, cell-based.
In experiment [12] the test system is MCF7. Put plainly: Potency index, ratio of IC50 for cisplatin to IC50 for test compound against human MCF7 cells by SRB method. The class given is functional.
Experiment [13] in a line: Antimicrobial activity against Aeromonas hydrophila subsp. hydrophila ATCC 7966. The class given is functional.

Broadly, the pIC50 is the negative decadic logarithm of the IC50, by convention in mol/L. What is called MIC is the least concentration at which growth counts as inhibited. A lower MIC goes with a more susceptible organism. A word on the ΔTm: it is the shift of the melting midpoint relative to a reference. For `CC[C@H](C)[C@@H]1NC(=O)[C@@H](Cc2ccccc2)NC(=O)[C@@H]2CSC(=N2)c2csc(n2)-c2csc(n2)-c2csc(n2)[C@@H](C)NC1=O` [MARTHIAPEPTIDE A], the pIC50 was 6.28 in the experiment with HepG2 [1], 6.37 with MCF7 [5], 6.42 in the experiment with SF-268 [7] and 6.33 in the experiment on NCI-H460 [11]. Further, the MIC is more than 128 µg/mL in the experiment on Escherichia coli [2]; more than 128 µg/mL in the experiment on Escherichia coli [4]; 8 µg/mL (≈ 12 µM) against Staphylococcus aureus; 4 µg/mL (≈ 6.01 µM) against Bacillus subtilis; 2 µg/mL (≈ 3 µM) in the experiment with Bacillus thuringiensis; 2 µg/mL (≈ 3 µM) with Micrococcus luteus. This molecule showed an MIC in experiment [13] of more than 128 µg/mL. Further, the “Ratio IC50” value in the experiment on NCI-H460 [3], in the experiment on SF-268 [6], with HepG2 [9] and with MCF7 [12] was 5 each time. Further, the ΔTm in the experiment with Nucleic Acid [8] came out at 0.9 °C. Moreover, in the experiment with Nucleic Acid [10], the result was inactive.

As for `CC[C@H]1OC(=O)[C@H](C)[C@@H](O[C@H]2C[C@@](C)(OC)[C@@H](O)[C@H](C)O2)[C@H](C)[C@@H](O[C@@H]2O[C@H](C)C[C@H](N(C)C)[C@H]2O)[C@](C)(O)C[C@@H](C)C(=O)[C@H](C)[C@@H](O)[C@]1(C)O` [ERYTHROMYCIN], the MIC in the experiment with Escherichia coli [2] is 64 µg/mL (≈ 87.2 µM); in the experiment with Escherichia coli [4], 32 µg/mL (≈ 43.6 µM); against Staphylococcus aureus, 16 µg/mL (≈ 21.8 µM); in the experiment with Bacillus subtilis it was less than 1 µg/mL; against Bacillus thuringiensis it was less than 1 µg/mL; with Micrococcus luteus it was less than 1 µg/mL. For the same molecule, in experiment [13], the MIC stood at 4 µg/mL (≈ 5.45 µM).

Regarding `NC[C@H]1O[C@H](O[C@H]2[C@H](O)[C@@H](O[C@H]3O[C@H](CO)[C@@H](O)[C@H](N)[C@H]3O)[C@H](N)C[C@@H]2N)[C@H](O)[C@@H](O)[C@@H]1O` [KANAMYCIN], the MIC is 32 µg/mL (≈ 66 µM) against Escherichia coli [2]; 16 µg/mL (≈ 33 µM) against Escherichia coli [4]; 8 µg/mL (≈ 16.5 µM) against Staphylococcus aureus; less than 1 µg/mL with Bacillus subtilis; 4 µg/mL (≈ 8.26 µM) against Bacillus thuringiensis; 32 µg/mL (≈ 66 µM) with Micrococcus luteus. This molecule also gave an MIC in [13] of less than 1 µg/mL.
